Test results from ChEMBL document CHEMBL1137066, “Tryptamine-based human beta3-adrenergic receptor agonists. Part 2: SAR of the methylene derivatives” (Bioorg Med Chem Lett, 2004).

Biological target: T1, Beta-1 adrenergic receptor (Homo sapiens, UniProt P08588)
Assay: Agonistic activity at human Beta-1 adrenergic receptor at 1000 nM concentration
Type: functional
Target sequence in this assay (P08588 whole entry, looked up): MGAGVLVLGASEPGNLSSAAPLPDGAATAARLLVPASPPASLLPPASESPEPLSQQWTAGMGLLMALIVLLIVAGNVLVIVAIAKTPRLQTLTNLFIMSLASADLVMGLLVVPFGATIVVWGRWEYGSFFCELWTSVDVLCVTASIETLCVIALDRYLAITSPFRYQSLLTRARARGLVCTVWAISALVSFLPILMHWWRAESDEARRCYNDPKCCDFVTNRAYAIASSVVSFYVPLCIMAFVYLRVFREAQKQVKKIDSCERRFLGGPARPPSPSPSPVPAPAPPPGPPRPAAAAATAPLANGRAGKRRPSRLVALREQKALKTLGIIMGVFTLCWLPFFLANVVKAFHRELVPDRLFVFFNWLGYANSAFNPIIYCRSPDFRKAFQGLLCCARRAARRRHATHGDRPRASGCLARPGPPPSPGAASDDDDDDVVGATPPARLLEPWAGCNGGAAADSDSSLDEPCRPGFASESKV

SMILES	Activity [%]
COc1cccc(S(=O)(=O)Nc2cccc([C@@H](O)CNCCc3c[nH]c4c(OS(C)(=O)=O)cccc34)c2)c1	11
CS(=O)(=O)Oc1cccc2c(CCNC[C@H](O)c3cccc(NS(=O)(=O)c4ccccc4N)c3)c[nH]c12	7
CS(=O)(=O)Oc1cccc2c(CCNC[C@H](O)c3cccc(NS(=O)(=O)c4cccc(Cl)c4)c3)c[nH]c12	11
CS(=O)(=O)Oc1cccc2c(CCNC[C@H](O)c3cccc(NS(=O)(=O)CC(F)(F)F)c3)c[nH]c12	0
O=S(=O)(Nc1cccc([C@@H](O)CNCCc2c[nH]c3c(OCc4ccccc4)cccc23)c1)c1cccs1	10
CS(=O)(=O)Oc1cccc2c(CCNC[C@H](O)c3cccc(NS(=O)(=O)c4ccc(Br)s4)c3)c[nH]c12	6
CS(=O)(=O)Oc1cccc2c(CCNC[C@H](O)c3cccc(NS(=O)(=O)c4cccs4)c3)c[nH]c12	12
CS(=O)(=O)Oc1cccc2c(CCNC[C@H](O)c3cccc(NS(=O)(=O)c4ccc(N)cc4)c3)c[nH]c12	5
CS(=O)(=O)Oc1cccc2c(CCNC[C@H](O)c3cccc(NS(=O)(=O)c4cccc(N)c4)c3)c[nH]c12	3
Cc1cccc2c(CCNC[C@H](O)c3cccc(NS(=O)(=O)c4cccs4)c3)c[nH]c12	3
O=S(=O)(Nc1cccc([C@@H](O)CNCCc2c[nH]c3ccccc23)c1)c1cccs1	2
CS(=O)(=O)Oc1cccc2c(CCNC[C@H](O)c3cccc(NS(=O)(=O)c4ccccc4)c3)c[nH]c12	14
CS(=O)(=O)Oc1cccc2c(CCNC[C@H](O)c3cccc(NS(=O)(=O)c4cccc(F)c4)c3)c[nH]c12	10
COc1cccc2c(CCNC[C@H](O)c3cccc(NS(=O)(=O)c4cccs4)c3)c[nH]c12	6
CS(=O)(=O)Oc1cccc2c(CCNC[C@H](O)c3cccc(NS(=O)(=O)c4cc(Cl)c(Cl)s4)c3)c[nH]c12	7

Biological target: T2, Beta-2 adrenergic receptor (Homo sapiens, UniProt P07550)
Assay: (§1) Agonistic activity at human Beta-2 adrenergic receptor at 1000 nM concentration
Type: functional
Target sequence in this assay (P07550 whole entry, looked up): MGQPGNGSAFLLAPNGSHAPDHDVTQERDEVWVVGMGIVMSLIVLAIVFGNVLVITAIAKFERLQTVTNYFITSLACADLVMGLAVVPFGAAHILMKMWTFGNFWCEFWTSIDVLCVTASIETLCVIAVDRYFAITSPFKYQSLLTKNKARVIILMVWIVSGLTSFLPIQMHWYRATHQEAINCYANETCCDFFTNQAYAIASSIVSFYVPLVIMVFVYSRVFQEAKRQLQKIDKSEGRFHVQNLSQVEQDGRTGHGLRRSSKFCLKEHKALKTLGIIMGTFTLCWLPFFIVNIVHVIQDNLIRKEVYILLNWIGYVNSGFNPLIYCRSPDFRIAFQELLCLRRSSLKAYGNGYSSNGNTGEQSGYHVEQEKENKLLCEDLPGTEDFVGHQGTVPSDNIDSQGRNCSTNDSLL

SMILES	Activity [%]
COc1cccc(S(=O)(=O)Nc2cccc([C@@H](O)CNCCc3c[nH]c4c(OS(C)(=O)=O)cccc34)c2)c1	10
CS(=O)(=O)Oc1cccc2c(CCNC[C@H](O)c3cccc(NS(=O)(=O)c4ccccc4N)c3)c[nH]c12	9
CS(=O)(=O)Oc1cccc2c(CCNC[C@H](O)c3cccc(NS(=O)(=O)CC(F)(F)F)c3)c[nH]c12	24
O=S(=O)(Nc1cccc([C@@H](O)CNCCc2c[nH]c3c(OCc4ccccc4)cccc23)c1)c1cccs1	32
CS(=O)(=O)Oc1cccc2c(CCNC[C@H](O)c3cccc(NS(=O)(=O)c4ccc(Br)s4)c3)c[nH]c12	17
CS(=O)(=O)Oc1cccc2c(CCNC[C@H](O)c3cccc(NS(=O)(=O)c4cccs4)c3)c[nH]c12	23
CS(=O)(=O)Oc1cccc2c(CCNC[C@H](O)c3cccc(NS(=O)(=O)c4ccc(N)cc4)c3)c[nH]c12	15
CS(=O)(=O)Oc1cccc2c(CCNC[C@H](O)c3cccc(NS(=O)(=O)c4cccc(N)c4)c3)c[nH]c12	6
Cc1cccc2c(CCNC[C@H](O)c3cccc(NS(=O)(=O)c4cccs4)c3)c[nH]c12	9
O=S(=O)(Nc1cccc([C@@H](O)CNCCc2c[nH]c3ccccc23)c1)c1cccs1	15
CS(=O)(=O)Oc1cccc2c(CCNC[C@H](O)c3cccc(NS(=O)(=O)c4ccccc4)c3)c[nH]c12	15
CS(=O)(=O)Oc1cccc2c(CCNC[C@H](O)c3cccc(NS(=O)(=O)c4cccc(F)c4)c3)c[nH]c12	8
COc1cccc2c(CCNC[C@H](O)c3cccc(NS(=O)(=O)c4cccs4)c3)c[nH]c12	16
CS(=O)(=O)Oc1cccc2c(CCNC[C@H](O)c3cccc(NS(=O)(=O)c4cc(Cl)c(Cl)s4)c3)c[nH]c12	18

Biological target: T3, Beta-3 adrenergic receptor (Homo sapiens, UniProt P13945)
Assay: as §1
Type: functional
Target sequence in this assay (P13945 whole entry, looked up): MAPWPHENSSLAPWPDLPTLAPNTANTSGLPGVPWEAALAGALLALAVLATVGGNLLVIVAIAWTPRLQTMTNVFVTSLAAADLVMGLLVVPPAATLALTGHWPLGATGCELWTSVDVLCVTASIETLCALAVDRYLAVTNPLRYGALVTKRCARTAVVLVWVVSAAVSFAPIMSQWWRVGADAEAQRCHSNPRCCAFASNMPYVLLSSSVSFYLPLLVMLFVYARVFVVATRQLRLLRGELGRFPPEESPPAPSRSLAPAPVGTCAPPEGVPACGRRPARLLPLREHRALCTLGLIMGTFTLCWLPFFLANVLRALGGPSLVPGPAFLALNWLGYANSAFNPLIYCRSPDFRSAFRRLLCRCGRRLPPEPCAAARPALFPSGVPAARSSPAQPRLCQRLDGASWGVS

SMILES	IA [%]
CS(=O)(=O)Oc1cccc2c(CCNC[C@H](O)c3cccc(NS(=O)(=O)c4cccc(Cl)c4)c3)c[nH]c12	96

Biological target: T1, Beta-1 adrenergic receptor
Assay: Agonistic activity was determined by measuring cAMP accumulation in CHO cells expressing cloned human Beta-1 adrenergic receptor
Type: functional, cell-based
Target sequence in this assay (P08588 whole entry): as the sequence (P08588 whole entry, looked up) above

SMILES	EC50 [nM]
C[C@H](Cc1c[nH]c2c(OS(C)(=O)=O)cccc12)NC[C@H](O)c1cccc(NS(=O)(=O)c2cccs2)c1	44

Biological target: T2, Beta-2 adrenergic receptor
Assay: Agonistic activity was determined by measuring cAMP accumulation in CHO cells expressing cloned human Beta-2 adrenergic receptor
Type: functional, cell-based
Target sequence in this assay (P07550 whole entry): as the sequence (P07550 whole entry, looked up) above

SMILES	EC50 [nM]
C[C@H](Cc1c[nH]c2c(OS(C)(=O)=O)cccc12)NC[C@H](O)c1cccc(NS(=O)(=O)c2cccs2)c1	18

Biological target: T3, Beta-3 adrenergic receptor
Assay: Agonistic activity was determined by measuring cAMP accumulation in CHO cells expressing cloned human Beta-3 adrenergic receptor
Type: functional, cell-based
Target sequence in this assay (P13945 whole entry): as the sequence (P13945 whole entry, looked up) above

SMILES	EC50 [nM]
COc1cccc(S(=O)(=O)Nc2cccc([C@@H](O)CNCCc3c[nH]c4c(OS(C)(=O)=O)cccc34)c2)c1	0.94
CS(=O)(=O)Oc1cccc2c(CCNC[C@H](O)c3cccc(NS(=O)(=O)c4ccccc4N)c3)c[nH]c12	3
CS(=O)(=O)Oc1cccc2c(CCNC[C@H](O)c3cccc(NS(=O)(=O)c4cccc(Cl)c4)c3)c[nH]c12	1
CS(=O)(=O)Oc1cccc2c(CCNC[C@H](O)c3cccc(NS(=O)(=O)CC(F)(F)F)c3)c[nH]c12	48
O=S(=O)(Nc1cccc([C@@H](O)CNCCc2c[nH]c3c(OCc4ccccc4)cccc23)c1)c1cccs1	7.6
CS(=O)(=O)Oc1cccc2c(CCNC[C@H](O)c3cccc(NS(=O)(=O)c4ccc(Br)s4)c3)c[nH]c12	2.8
CS(=O)(=O)Oc1cccc2c(CCNC[C@H](O)c3cccc(NS(=O)(=O)c4cccs4)c3)c[nH]c12	1.7
CS(=O)(=O)Oc1cccc2c(CCNC[C@H](O)c3cccc(NS(=O)(=O)c4ccc(N)cc4)c3)c[nH]c12	8.4
CS(=O)(=O)Oc1cccc2c(CCNC[C@H](O)c3cccc(NS(=O)(=O)c4cccc(N)c4)c3)c[nH]c12	0.31
Cc1cccc2c(CCNC[C@H](O)c3cccc(NS(=O)(=O)c4cccs4)c3)c[nH]c12	25
O=S(=O)(Nc1cccc([C@@H](O)CNCCc2c[nH]c3ccccc23)c1)c1cccs1	21
CS(=O)(=O)Oc1cccc2c(CCNC[C@H](O)c3cccc(NS(=O)(=O)c4ccccc4)c3)c[nH]c12	2
CS(=O)(=O)Oc1cccc2c(CCNC[C@H](O)c3cccc(NS(=O)(=O)c4cccc(F)c4)c3)c[nH]c12	2.4
COc1cccc2c(CCNC[C@H](O)c3cccc(NS(=O)(=O)c4cccs4)c3)c[nH]c12	13
CS(=O)(=O)Oc1cccc2c(CCNC[C@H](O)c3cccc(NS(=O)(=O)c4cc(Cl)c(Cl)s4)c3)c[nH]c12	6.7
C[C@H](Cc1c[nH]c2c(OS(C)(=O)=O)cccc12)NC[C@H](O)c1cccc(NS(=O)(=O)c2cccs2)c1	0.21

Biological target: T1, Beta-1 adrenergic receptor
Assay: Intrinsic activity expressed as percentage of maximal stimulation with isoproterenol of Beta-1 adrenergic receptor
Type: functional
Target sequence in this assay (P08588 whole entry, looked up): as the sequence (P08588 whole entry, looked up) above

SMILES	IA [%]
C[C@H](Cc1c[nH]c2c(OS(C)(=O)=O)cccc12)NC[C@H](O)c1cccc(NS(=O)(=O)c2cccs2)c1	36

Biological target: T3, Beta-3 adrenergic receptor
Assay: Intrinsic activity expressed as percentage of maximal stimulation with isoproterenol of Beta-3 adrenergic receptor
Type: functional
Target sequence in this assay (P13945 whole entry, looked up): as the sequence (P13945 whole entry, looked up) above

SMILES	IA [%]
COc1cccc(S(=O)(=O)Nc2cccc([C@@H](O)CNCCc3c[nH]c4c(OS(C)(=O)=O)cccc34)c2)c1	97
CS(=O)(=O)Oc1cccc2c(CCNC[C@H](O)c3cccc(NS(=O)(=O)c4ccccc4N)c3)c[nH]c12	80
CS(=O)(=O)Oc1cccc2c(CCNC[C@H](O)c3cccc(NS(=O)(=O)CC(F)(F)F)c3)c[nH]c12	49
O=S(=O)(Nc1cccc([C@@H](O)CNCCc2c[nH]c3c(OCc4ccccc4)cccc23)c1)c1cccs1	81
CS(=O)(=O)Oc1cccc2c(CCNC[C@H](O)c3cccc(NS(=O)(=O)c4ccc(Br)s4)c3)c[nH]c12	82
CS(=O)(=O)Oc1cccc2c(CCNC[C@H](O)c3cccc(NS(=O)(=O)c4cccs4)c3)c[nH]c12	89
CS(=O)(=O)Oc1cccc2c(CCNC[C@H](O)c3cccc(NS(=O)(=O)c4ccc(N)cc4)c3)c[nH]c12	85
CS(=O)(=O)Oc1cccc2c(CCNC[C@H](O)c3cccc(NS(=O)(=O)c4cccc(N)c4)c3)c[nH]c12	105
Cc1cccc2c(CCNC[C@H](O)c3cccc(NS(=O)(=O)c4cccs4)c3)c[nH]c12	77
O=S(=O)(Nc1cccc([C@@H](O)CNCCc2c[nH]c3ccccc23)c1)c1cccs1	73
CS(=O)(=O)Oc1cccc2c(CCNC[C@H](O)c3cccc(NS(=O)(=O)c4ccccc4)c3)c[nH]c12	86
CS(=O)(=O)Oc1cccc2c(CCNC[C@H](O)c3cccc(NS(=O)(=O)c4cccc(F)c4)c3)c[nH]c12	97
COc1cccc2c(CCNC[C@H](O)c3cccc(NS(=O)(=O)c4cccs4)c3)c[nH]c12	87
CS(=O)(=O)Oc1cccc2c(CCNC[C@H](O)c3cccc(NS(=O)(=O)c4cc(Cl)c(Cl)s4)c3)c[nH]c12	93
C[C@H](Cc1c[nH]c2c(OS(C)(=O)=O)cccc12)NC[C@H](O)c1cccc(NS(=O)(=O)c2cccs2)c1	97

Biological target: T2, Beta-2 adrenergic receptor
Assay: Intrinsic activity determined by measuring cAMP accumulation in CHO cells expressing cloned human Beta-2 adrenergic receptor and activity expressed as percentage of maximal stimulation with isoproterenol
Type: functional, cell-based
Target sequence in this assay (P07550 whole entry, looked up): as the sequence (P07550 whole entry, looked up) above

SMILES	Activity [%]
CS(=O)(=O)Oc1cccc2c(CCNC[C@H](O)c3cccc(NS(=O)(=O)c4cccc(Cl)c4)c3)c[nH]c12	13

Biological target: T2, Beta-2 adrenergic receptor
Assay: Binding inhibition constant was determined by inhibition of [125I]iodocyanopindolol binding to Beta-2 adrenergic receptor
Target sequence in this assay (P07550 whole entry): as the sequence (P07550 whole entry, looked up) above

SMILES	Ki [nM]
CS(=O)(=O)Oc1cccc2c(CCNC[C@H](O)c3cccc(NS(=O)(=O)c4cccs4)c3)c[nH]c12	223
CS(=O)(=O)Oc1cccc2c(CCNC[C@H](O)c3cccc(NS(=O)(=O)c4cccc(N)c4)c3)c[nH]c12	70
C[C@H](Cc1c[nH]c2c(OS(C)(=O)=O)cccc12)NC[C@H](O)c1cccc(NS(=O)(=O)c2cccs2)c1	48

Biological target: T3, Beta-3 adrenergic receptor
Assay: Binding inhibition constant was determined by inhibition of [125I]iodocyanopindolol binding to Beta-3 adrenergic receptor
Target sequence in this assay (P13945 whole entry): as the sequence (P13945 whole entry, looked up) above

SMILES	Ki [nM]
CS(=O)(=O)Oc1cccc2c(CCNC[C@H](O)c3cccc(NS(=O)(=O)c4cccs4)c3)c[nH]c12	33
CS(=O)(=O)Oc1cccc2c(CCNC[C@H](O)c3cccc(NS(=O)(=O)c4cccc(N)c4)c3)c[nH]c12	2.6
C[C@H](Cc1c[nH]c2c(OS(C)(=O)=O)cccc12)NC[C@H](O)c1cccc(NS(=O)(=O)c2cccs2)c1	4

Biological target: T1, Beta-1 adrenergic receptor
Assay: Binding inhibition constant was determined by inhibition of [125I]-iodocyanopindolol binding to Beta-1 adrenergic receptor
Target sequence in this assay (P08588 whole entry): as the sequence (P08588 whole entry, looked up) above

SMILES	Ki [nM]
CS(=O)(=O)Oc1cccc2c(CCNC[C@H](O)c3cccc(NS(=O)(=O)c4cccs4)c3)c[nH]c12	230
CS(=O)(=O)Oc1cccc2c(CCNC[C@H](O)c3cccc(NS(=O)(=O)c4cccc(N)c4)c3)c[nH]c12	89
C[C@H](Cc1c[nH]c2c(OS(C)(=O)=O)cccc12)NC[C@H](O)c1cccc(NS(=O)(=O)c2cccs2)c1	66
